# Measurements from ChEMBL document CHEMBL1201862, “PubChem BioAssay data set” (2004).
#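 Following 48 hours of exposure in 96-well plates, responses at five concentrations were used to interpolate endpoints linearly. The concentration for 50% growth inhibition is given as GI50.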 The source made the active and inactive calls. No stated cut-off is given here; in the data, active = GI50 up to about 1.1 µM and inactive = higher.
# Columns and labels:
# Experiment in all cases: NCI anticancer screen, dose series, 48 h
# NCI-H522 = test system: NCI-H522
# TK-10 = test system: TK-10
# SF-268 = test system: SF-268
# HOP-92 = test system: HOP-92
# UACC-62 = test system: UACC-62
# RPMI-8226 = test system: RPMI-8226
# HOP-62 = test system: HOP-62
# COLO 205 = test system: COLO 205
# A549 = test system: A549
# Malme-3M = test system: Malme-3M
# 786-0 = test system: 786-0
# SK-OV-3 = test system: SK-OV-3
# NCI-H460 = test system: NCI-H460
# IGROV-1 = test system: IGROV-1
# HL-60 = test system: HL-60
# HT-29 = test system: HT-29
# A498 = test system: A498
# SK-MEL-5 = test system: SK-MEL-5
Compound,GI50 (NCI-H522),GI50 (TK-10),GI50 (SF-268),GI50 (HOP-92),GI50 (UACC-62),GI50 (RPMI-8226),GI50 (HOP-62),GI50 (COLO 205),GI50 (A549),GI50 (Malme-3M),GI50 (786-0),GI50 (SK-OV-3),GI50 (NCI-H460),GI50 (IGROV-1),GI50 (HL-60),GI50 (HT-29),GI50 (A498),GI50 (SK-MEL-5)
CCc1cccc(C(C)CC)c1/N=C(/NC(=O)c1ccccc1C(=O)N/C(=N/c1c(CC)cccc1C(C)CC)SC)SC (stereo unspecified),28.2 µM (inactive),30.8 µM (inactive),72.3 µM (inactive),10.5 µM (inactive),20.9 µM (inactive),30.1 µM (inactive),31.1 µM (inactive),40.6 µM (inactive),47.3 µM (inactive),48.5 µM (inactive),49.3 µM (inactive),28.6 µM (inactive),50.4 µM (inactive),38.7 µM (inactive),20.9 µM (inactive),40.4 µM (inactive),,
CC(=O)Nc1ccc(-c2nnc(SCC(=O)Nc3ccc(Cl)cc3)o2)cc1,2.34 µM (inactive),18.4 µM (inactive),4.53 µM (inactive),,4.89 µM (inactive),6.89 µM (inactive),22.4 µM (inactive),17.6 µM (inactive),16.8 µM (inactive),13.6 µM (inactive),5.78 µM (inactive),16.4 µM (inactive),10 µM (inactive),12.2 µM (inactive),16.3 µM (inactive),10.6 µM (inactive),14.8 µM (inactive),5.69 µM (inactive)
O=C(/C=C/c1ccccc1O)c1ccccc1Cl,31.3 µM (inactive),90.4 µM (inactive),44.5 µM (inactive),28.8 µM (inactive),67.5 µM (inactive),,75.7 µM (inactive),33 µM (inactive),> 100 µM (inactive),> 100 µM (inactive),92.5 µM (inactive),45.8 µM (inactive),34 µM (inactive),32.6 µM (inactive),15.3 µM (inactive),> 100 µM (inactive),90.4 µM (inactive),42.3 µM (inactive)
O=C(NC(=O)c1cn(CCNCCO)c(=O)[nH]c1=O)OCc1ccccc1,> 100 µM (inactive),> 100 µM (inactive),> 100 µM (inactive),> 100 µM (inactive),> 100 µM (inactive),> 100 µM (inactive),> 100 µM (inactive),> 100 µM (inactive),> 100 µM (inactive),> 100 µM (inactive),> 100 µM (inactive),> 100 µM (inactive),> 100 µM (inactive),> 100 µM (inactive),> 100 µM (inactive),> 100 µM (inactive),,> 100 µM (inactive)
CCCC(C)n1c(C)nc2c1C(=O)c1ccccc1C2=O (stereo unspecified),23.1 µM (inactive),31 µM (inactive),19.6 µM (inactive),16.7 µM (inactive),6.78 µM (inactive),,20 µM (inactive),23.3 µM (inactive),21 µM (inactive),23.8 µM (inactive),19.9 µM (inactive),42.7 µM (inactive),4.6 µM (inactive),37.4 µM (inactive),33.2 µM (inactive),17.3 µM (inactive),,13.3 µM (inactive)
Cc1nc2c(n1CCN(C)C)C(=O)c1ccccc1C2=O,5.38 µM (inactive),38.8 µM (inactive),22 µM (inactive),,11.9 µM (inactive),,26.9 µM (inactive),4.47 µM (inactive),18.8 µM (inactive),2.84 µM (inactive),28 µM (inactive),45.8 µM (inactive),9.84 µM (inactive),13.4 µM (inactive),5.3 µM (inactive),10.4 µM (inactive),,7.45 µM (inactive)
CN1C(OCc2ccccc2)c2c(ccc3c2OCO3)C2C=Cc3cc4c(cc3C21)OCO4 (stereo unspecified),0.989 µM (active),1.89 µM (inactive),0.475 µM (active),1.08 µM (active),1.2 µM (inactive),0.221 µM (active),1.58 µM (inactive),1.02 µM (active),1.49 µM (inactive),1.26 µM (inactive),1.36 µM (inactive),1.22 µM (inactive),1.48 µM (inactive),0.792 µM (active),0.226 µM (active),0.375 µM (active),,1.31 µM (inactive)
CC(=O)O[C@H]1CC[C@@]2(C)C(=CC[C@@H]3C2CC[C@]2(C)Nc4nc5ccccc5cc4CC32)C1 (stereo partly specified),11.4 µM (inactive),5.31 µM (inactive),4.2 µM (inactive),,10.8 µM (inactive),8.65 µM (inactive),13.3 µM (inactive),7.66 µM (inactive),3.34 µM (inactive),6.55 µM (inactive),3.28 µM (inactive),2.82 µM (inactive),4.57 µM (inactive),11.7 µM (inactive),4.32 µM (inactive),1.82 µM (inactive),5.47 µM (inactive),4.1 µM (inactive)
Cc1ccc(S(=O)(=O)N/N=C/c2oc(-c3ccncc3)c(-c3ccncc3)c2[N+](=O)[O-])cc1,> 100 µM (inactive),> 100 µM (inactive),> 100 µM (inactive),,> 100 µM (inactive),,> 100 µM (inactive),> 100 µM (inactive),> 100 µM (inactive),> 100 µM (inactive),> 100 µM (inactive),> 100 µM (inactive),> 100 µM (inactive),> 100 µM (inactive),> 100 µM (inactive),> 100 µM (inactive),> 100 µM (inactive),> 100 µM (inactive)
CN(C)/N=C(/c1nc2ccc([N+](=O)[O-])cc2nc1O)C(O)c1ccco1 (stereo unspecified),8.57 µM (inactive),,84.9 µM (inactive),> 100 µM (inactive),22.8 µM (inactive),> 100 µM (inactive),72.1 µM (inactive),> 100 µM (inactive),> 100 µM (inactive),> 100 µM (inactive),> 100 µM (inactive),> 100 µM (inactive),> 100 µM (inactive),90.4 µM (inactive),> 100 µM (inactive),> 100 µM (inactive),,70.1 µM (inactive)
Cc1[nH]c2ccccc2c1C1CC(=O)NC1=O (stereo unspecified),,> 100 µM (inactive),,,> 100 µM (inactive),> 100 µM (inactive),> 100 µM (inactive),,> 100 µM (inactive),> 100 µM (inactive),> 100 µM (inactive),> 100 µM (inactive),> 100 µM (inactive),> 100 µM (inactive),> 100 µM (inactive),> 10 µM (inactive),> 100 µM (inactive),> 100 µM (inactive)
O=C1c2nn(-c3ccccc3)nc2C(c2ccccc2)N1c1ccccc1 (stereo unspecified),> 100 µM (inactive),,> 100 µM (inactive),,> 100 µM (inactive),> 100 µM (inactive),28.3 µM (inactive),> 100 µM (inactive),> 100 µM (inactive),> 100 µM (inactive),33.3 µM (inactive),,> 100 µM (inactive),77.6 µM (inactive),,> 100 µM (inactive),,> 100 µM (inactive)
